According to patent EP1779853A2, “9a-azalides as veterinary antimicrobial agents” (Merial Ltd., priority 1997, dated 1999):
Converted amounts (≈) assume the structure as drawn.

How the values were obtained:
Assay in all cases: MIC determination (culture tube dilution) against veterinary pathogens
Format in all cases: cell-based
[1] = test system: A. pleuropneumoniae; conditions: Actinobacillus pleuropneumoniae, one range summarising both compounds
Experimental: (§1) The antibacterial activity of representative 9a-azalides against a panel of veterinary pathogens was determined by the minimum inhibitory concentration (MIC) method well known in the art. This is done by preparing a series of culture tubes, each containing a medium with a different concnetration of the antimicrobial agent, and inoculating all the tubes with the same organism. The lowest concentration of agent that completely prevents the appearance of turbidity is noted, and this concentration is called the MIC.

[2] = test system: E. coli; conditions: Escherichia coli, one range summarising both compounds
Experimental: as §1

[3] = test system: H. somnus; conditions: one range summarising both compounds
Experimental: as §1

[4] = test system: Salmonella spp.; conditions: one range summarising both compounds
Experimental: as §1

[5] = test system: P. multocida; conditions: Pasteurella multocida, one range summarising both compounds
Experimental: as §1

[6] = test system: P. haemolytica; conditions: Mannheimia haemolytica, one range summarising both compounds
Experimental: as §1

Structure (SMILES) | MIC [1] [mg/L] | MIC [2] [mg/L] | MIC [3] [mg/L] | MIC [4] [mg/L] | MIC [5] [mg/L] | MIC [6] [mg/L]
CC[C@H]1OC(=O)[C@H](C)[C@@H](O[C@H]2C[C@@](C)(OC)[C@@H](N)[C@H](C)O2)[C@H](C)[C@@H](O[C@@H]2O[C@H](C)C[C@H](N(C)C)[C@H]2O)[C@](C)(O)C[C@@H](C)CN(C)[C@H](C)[C@@H](O)[C@]1(C)O [4"-deoxy-4"-aminoazithromycin] | 0.062 to 0.5 (≈ 0.0829 to 0.668 µM) | 0.5 to 16 (≈ 0.668 to 21.4 µM) | 0.062 to 0.25 (≈ 0.0829 to 0.334 µM) | 1 to 16 (≈ 1.34 to 21.4 µM) | 0.125 to 2 (≈ 0.167 to 2.67 µM) | 0.125 to 0.5 (≈ 0.167 to 0.668 µM)
CC[C@H]1OC(=O)[C@H](C)[C@@H](O[C@H]2C[C@@](C)(OC)[C@@H](O)[C@H](C)O2)[C@H](C)[C@@H](O[C@@H]2O[C@H](C)C[C@H](N(C)C)[C@H]2O)[C@](C)(O)C[C@@H](C)CN(C)[C@H](C)[C@@H](O)[C@]1(C)O [azithromycin, 9-deoxo-9a-aza-9a-methyl-9a-homoerythromycin A] | 0.062 to 0.5 (≈ 0.0828 to 0.668 µM) | 0.5 to 16 (≈ 0.668 to 21.4 µM) | 0.062 to 0.25 (≈ 0.0828 to 0.334 µM) | 1 to 16 (≈ 1.34 to 21.4 µM) | 0.125 to 2 (≈ 0.167 to 2.67 µM) | 0.125 to 0.5 (≈ 0.167 to 0.668 µM)
